According to patent publication US20250223268A1, “4-Methylsulfonylbenzamide Compound, Preparation Method, Herbicidal Composition And Use” (Jiangsu Flag Chemical Industry Co., Ltd., priority 2022, published 2025):

Key:
Assay type in all cases: in vivo
[1] = test system: Digitaria sanguinalis; assay: Greenhouse herbicidal activity and crop safety comparison (Test Example 2)
Summary of the method: (§1)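 Fresh weight inhibition, banded into grades A to E (E <20%), was rated 14-21 days after foliar spraying of 3-6 leaf plants, or 14-30 days after a soil spray applied 24 h post-sowing.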

[2] = test system: Zea mays; assay: as above
Summary of the method: as §1

[3] = test system: Cyperus iria; assay: Greenhouse herbicidal activity assay, post-emergence; conditions: Post-emergence test, rate 150 g a.i./hm^2, grade by fresh weight inhibition rate; for pest or weed control at 150 g/ha: Cyperus iria, read-out: Control efficacy grade, Cyperus iria
Summary of the method: (§2)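 Weeds and crops grown in pots of nutrient soil in a growth chamber to the 3-6 leaf stage, then foliar-sprayed and air-dried. Fresh weight inhibition scored 14-21 days after treatment and graded A (≥80%) through E (<20%).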

[4] = test system: Digitaria sanguinalis; assay: as above; conditions: Post-emergence test, rate 150 g a.i./hm^2, grade by fresh weight inhibition rate; for pest or weed control at 150 g/ha: Digitaria sanguinalis, read-out: Control efficacy grade, Digitaria sanguinalis
Summary of the method: as §2

[5] = test system: Echinochloa crusgalli; assay: as above; conditions: Post-emergence test, rate 150 g a.i./hm^2, grade by fresh weight inhibition rate; for pest or weed control at 150 g/ha: Echinochloa crus-galli, read-out: Control efficacy grade, Echinochloa crusgalli
Summary of the method: as §2

[6] = test system: Eclipta prostrata; assay: as above; conditions: Post-emergence test, rate 150 g a.i./hm^2, grade by fresh weight inhibition rate; for pest or weed control at 150 g/ha: Eclipta prostrata, read-out: Control efficacy grade, Eclipta prostrata
Summary of the method: as §2

[7] = test system: Leptochloa chinensis; assay: as above; conditions: Post-emergence test, rate 150 g a.i./hm^2, grade by fresh weight inhibition rate; for pest or weed control at 150 g/ha: Dinebra chinensis, read-out: Control efficacy grade, Leptochloa chinensis
Summary of the method: as §2

[8] = test system: Echinochloa crusgalli; assay: Greenhouse herbicidal activity and crop safety comparison (Test Example 2); conditions: for inhibition at 150 g/ha / Echinochloa crusgalli, control efficacy grading (fresh weight inhibition rate): Rate 150 g/ha
Summary of the method: as §1

[9] = test system: Oryza sativa subsp. indica; assay: as above
Summary of the method: as §1

[10] = test system: Oryza sativa subsp. japonica; assay: as above
Summary of the method: as §1

[11] = test system: Leptochloa chinensis; assay: as above; conditions: Rate 150 g/ha
Summary of the method: as §1

[12] = Digitaria sanguinalis, Rate 75 g/ha, read-out: Digitaria sanguinalis, control efficacy grading (fresh weight inhibition rate)
[13] = Digitaria sanguinalis, Rate 150 g/ha, read-out: Digitaria sanguinalis, control efficacy grading (fresh weight inhibition rate)
[14] = Echinochloa crus-galli, read-out: Echinochloa crusgalli, control efficacy grading (fresh weight inhibition rate)

Compound | inhibition at 75 g/ha [1, 12] [%] | inhibition at 150 g/ha [1, 13] [%] | Zea mays, grading of fresh weight inhibition rate (crop safety) ([2]; Rate 18.75 g/ha) | Zea mays, grading of fresh weight inhibition rate (crop safety) ([2]; Rate 75 g/ha) | Zea mays, grading of fresh weight inhibition rate (crop safety) ([2]; Rate 150 g/ha) | Control efficacy grade, Cyperus iria [3] | Control efficacy grade, Digitaria sanguinalis [4] | Control efficacy grade, Echinochloa crusgalli [5] | Control efficacy grade, Eclipta prostrata [6] | Control efficacy grade, Leptochloa chinensis [7] | Oryza sativa subsp. indica, grading of fresh weight inhibition rate (crop safety) ([9]; Rate 150 g/ha) | Oryza sativa subsp. japonica, grading of fresh weight inhibition rate (crop safety) ([10]; Rate 150 g/ha) | Echinochloa crusgalli, control efficacy grading (fresh weight inhibition rate) [8] | Leptochloa chinensis, control efficacy grading (fresh weight inhibition rate) [11] | other results
CCC[S+]([O-])c1c(S(C)(=O)=O)ccc(C(=O)Nc2nonc2C)c1Cl (racemic) [Compound 4-2, 2-chloro-N-(4-methyl-1,2,5-oxadiazol-3-yl)-4-(methylsulfonyl)-3-(propylsulfinyl)benzamide] | 80 to 100 | 80 to 100 | E (Fresh weight inhibition rate<20%) | E (Fresh weight inhibition rate<20%) | E (Fresh weight inhibition rate<20%) | – | – | – | – | – | – | – | – | – | pest or weed control at 150 g/ha [3]: 80 to 100%; pest or weed control at 150 g/ha [4]: 80 to 100%; pest or weed control at 150 g/ha [5]: 80 to 100%; pest or weed control at 150 g/ha [6]: 80 to 100%; pest or weed control at 150 g/ha [7]: 80 to 100%
CCC[S+]([O-])c1c(S(C)(=O)=O)ccc(C(=O)Nc2nonc2C)c1Cl (single isomer, unassigned) [Compound 4-3] | – | – | E (Fresh weight inhibition rate<20%) | E (Fresh weight inhibition rate<20%) | E (Fresh weight inhibition rate<20%) | A (Fresh weight inhibition rate≥80% to 100%) | A (Fresh weight inhibition rate≥80% to 100%) | A (Fresh weight inhibition rate≥80% to 100%) | A (Fresh weight inhibition rate≥80% to 100%) | A (Fresh weight inhibition rate≥80% to 100%) | – | – | – | – | Digitaria sanguinalis, control efficacy grading (fresh weight inhibition rate) ([1]; Rate 18.75 g/ha): A (Fresh weight inhibition rate≥80% to 100%); Digitaria sanguinalis, control efficacy grading (fresh weight inhibition rate) ([1]; Rate 75 g/ha): A (Fresh weight inhibition rate≥80% to 100%); Digitaria sanguinalis, control efficacy grading (fresh weight inhibition rate) ([1]; Rate 150 g/ha): A (Fresh weight inhibition rate≥80% to 100%)
CCC[S+]([O-])c1c(S(C)(=O)=O)ccc(C(=O)Nc2nonc2C)c1Cl (single isomer, unassigned) [Compound 4-4] | – | – | E (Fresh weight inhibition rate<20%) | E (Fresh weight inhibition rate<20%) | E (Fresh weight inhibition rate<20%) | A (Fresh weight inhibition rate≥80% to 100%) | A (Fresh weight inhibition rate≥80% to 100%) | A (Fresh weight inhibition rate≥80% to 100%) | A (Fresh weight inhibition rate≥80% to 100%) | A (Fresh weight inhibition rate≥80% to 100%) | – | – | – | – | Digitaria sanguinalis, control efficacy grading (fresh weight inhibition rate) ([1]; Rate 75 g/ha): A (Fresh weight inhibition rate≥80% to 100%); Digitaria sanguinalis, control efficacy grading (fresh weight inhibition rate) ([1]; Rate 150 g/ha): A (Fresh weight inhibition rate≥80% to 100%)
Cn1ncnc1NC(=O)c1ccc(S(C)(=O)=O)c(S(C)(=O)=O)c1Cl [CK3, reference compound] | < 20 | 20 to 40 | – | E (Fresh weight inhibition rate<20%) | D (Fresh weight inhibition rate≥20% to <40%) | – | – | – | – | – | B (Fresh weight inhibition rate≥260% to <80%) | C (Fresh weight inhibition rate≥40% to <60%) | – | – | inhibition at 75 g/ha ([8]; Echinochloa crus-galli, Rate 75 g/ha, read-out: Echinochloa crusgalli, control efficacy grading (fresh weight inhibition rate)): 40 to 60%; inhibition at 150 g/ha [8, 14]: 80 to 100%; Oryza sativa subsp. indica, grading of fresh weight inhibition rate (crop safety) ([9]; Rate 75 g/ha): D (Fresh weight inhibition rate≥20% to <40%); Oryza sativa subsp. japonica, grading of fresh weight inhibition rate (crop safety) ([10]; Rate 75 g/ha): D (Fresh weight inhibition rate≥20% to <40%)
Cc1nonc1NC(=O)c1ccc(S(C)(=O)=O)c([S+](C)[O-])c1Cl (centres unmarked) [CK6, reference compound] | 40 to 60 | 40 to 60 | E (Fresh weight inhibition rate<20%) | D (Fresh weight inhibition rate≥20% to <40%) | D (Fresh weight inhibition rate≥20% to <40%) | – | – | – | – | – | – | – | – | – | inhibition at 18.75 g/ha ([1]; Digitaria sanguinalis, Rate 18.75 g/ha, read-out: Digitaria sanguinalis, control efficacy grading (fresh weight inhibition rate)): < 20%
C=CCS(=O)(=O)c1c(S(C)(=O)=O)ccc(C(=O)Nc2nnc(C(C)C)o2)c1Cl [Compound 3-574] | – | – | – | – | – | A (Fresh weight inhibition rate≥80% to 100%) | B (Fresh weight inhibition rate≥260% to <80%) | A (Fresh weight inhibition rate≥80% to 100%) | A (Fresh weight inhibition rate≥80% to 100%) | A (Fresh weight inhibition rate≥80% to 100%) | E (Fresh weight inhibition rate<20%) | E (Fresh weight inhibition rate<20%) | A (Fresh weight inhibition rate≥80% to 100%) | A (Fresh weight inhibition rate≥80% to 100%) | –
CCCS(=O)(=O)c1c(S(C)(=O)=O)ccc(C(=O)Nc2nnc(C3CC3)o2)c1Cl [Compound 3-619] | – | – | – | – | – | A (Fresh weight inhibition rate≥80% to 100%) | A (Fresh weight inhibition rate≥80% to 100%) | A (Fresh weight inhibition rate≥80% to 100%) | A (Fresh weight inhibition rate≥80% to 100%) | A (Fresh weight inhibition rate≥80% to 100%) | E (Fresh weight inhibition rate<20%) | E (Fresh weight inhibition rate<20%) | A (Fresh weight inhibition rate≥80% to 100%) | A (Fresh weight inhibition rate≥80% to 100%) | –
CC(C)S(=O)(=O)c1c(S(C)(=O)=O)ccc(C(=O)Nc2nnc(C3CC3)o2)c1Cl [Compound 3-624, 2-chloro-N-(5-cyclopropyl-1,3,4-oxadiazol-2-yl)-3-(isopropylsulfonyl)-4-(methylsulfonyl)benzamide] | – | – | – | – | – | – | – | – | – | – | E (Fresh weight inhibition rate<20%) | E (Fresh weight inhibition rate<20%) | – | – | inhibition at 150 g/ha [8, 14]: 80 to 100%; inhibition at 150 g/ha ([11]; Dinebra chinensis, read-out: Leptochloa chinensis, control efficacy grading (fresh weight inhibition rate)): 80 to 100%; pest or weed control at 150 g/ha [3]: 80 to 100%; pest or weed control at 150 g/ha [4]: 80 to 100%; pest or weed control at 150 g/ha [5]: 80 to 100%; pest or weed control at 150 g/ha [6]: 80 to 100%; pest or weed control at 150 g/ha [7]: 80 to 100%
CS(=O)(=O)c1ccc(C(=O)Nc2nnc(C3CC3)o2)c(Cl)c1S(=O)(=O)C1CC1 [Compound 3-655] | – | – | – | – | – | A (Fresh weight inhibition rate≥80% to 100%) | A (Fresh weight inhibition rate≥80% to 100%) | A (Fresh weight inhibition rate≥80% to 100%) | A (Fresh weight inhibition rate≥80% to 100%) | A (Fresh weight inhibition rate≥80% to 100%) | E (Fresh weight inhibition rate<20%) | E (Fresh weight inhibition rate<20%) | A (Fresh weight inhibition rate≥80% to 100%) | A (Fresh weight inhibition rate≥80% to 100%) | –
C=CCS(=O)(=O)c1c(S(C)(=O)=O)ccc(C(=O)Nc2nnc(C3CC3)o2)c1Cl [Compound 3-690] | – | – | – | – | – | A (Fresh weight inhibition rate≥80% to 100%) | B (Fresh weight inhibition rate≥260% to <80%) | A (Fresh weight inhibition rate≥80% to 100%) | A (Fresh weight inhibition rate≥80% to 100%) | A (Fresh weight inhibition rate≥80% to 100%) | E (Fresh weight inhibition rate<20%) | E (Fresh weight inhibition rate<20%) | A (Fresh weight inhibition rate≥80% to 100%) | A (Fresh weight inhibition rate≥80% to 100%) | –
